Among the data in patent US20120302569A1, “PHENYL-THIAZOLYL INHIBITORS OF PRO-MATRIX METALLOPROTEINASE ACTIVATION” (priority 2011, published 2012) are Kd and IC50 values, retold here.

The target in test [1] is T1, proMMP9(67-444;ΔFnII) (SEQ ID NO:5) (Homo sapiens, UniProt P14780, DEL216-390).
T1 construct: start methionine (N); made in house; host or cells: E. coli BL21(DE3) RIL
T1 sequence (P14780 with tags, fused parts or gaps DEL216-390): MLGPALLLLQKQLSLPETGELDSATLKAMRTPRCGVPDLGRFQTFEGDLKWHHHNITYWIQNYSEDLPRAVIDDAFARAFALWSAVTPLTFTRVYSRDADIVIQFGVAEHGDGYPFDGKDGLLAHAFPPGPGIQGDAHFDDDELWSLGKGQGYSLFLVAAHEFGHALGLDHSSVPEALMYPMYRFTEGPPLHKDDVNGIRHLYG
As to the kind of experiment: ThermoFluor with proMMP9(67-444;ΔFnII). To be noted: read-out: proMMP9(67-444; ΔFnII) (SEQ ID NO: 5) binding. The protocol: (§1) The ThermoFluor® (TF) assay is a 384-well plate-based binding assay that measures thermal stability of proteins (Biomol Screen 2001, 6, 429-40; Biochemistry 2005, 44, 5258-66). The experiments were carried out using instruments available from Johnson & Johnson Pharmaceutical Research & Development, LLC. TF dye used in all experiments was […] (1,8-ANS) (Invitrogen: A-47).
(§2) Compounds were arranged in a pre-dispensed plate (Greiner Bio-one: 781280), wherein compounds were serially diluted in 100% DMSO across 11 columns within a series. Columns 12 and 24 were used as DMSO reference and contained no compound. For multiple compound concentration-response experiments, the compound aliquots (50 nL) were robotically predispensed directly into black 384-well polypropylene PCR microplates (Abgene: TF-0384/k) using a Cartesian Hummingbird liquid handler (DigiLab, Holliston, Mass.). Following compound dispense, protein and dye solutions were added to achieve the final assay volume of 3 μL. The assay solutions were overlayed with 1 μL of silicone oil (Fluka, type DC 200: 85411) to prevent evaporation.
(§3) Assay plates were robotically loaded onto a thermostatically controlled PCR-type thermal block and then heated from 40 to 90° C. at a ramp-rate of 1° C./min for all experiments. Fluorescence was measured by continuous illumination with UV light (Hamamatsu LC6) supplied via fiber optics and filtered through a band-pass filter (380-400 nm; >6 OD cutoff). Fluorescence emission of the entire 384-well plate was detected by measuring light intensity using a CCD camera (Sensys, Roper Scientific) filtered to detect 500±25 nm, resulting in simultaneous and independent readings of all 384 wells. A single image with 20-sec exposure time was collected at each temperature, and the sum of the pixel intensity in a given area of the assay plate was recorded vs temperature and fit to standard equations to yield the Tm (J Biomol Screen 2001, 6, 429-40).
(§4) Thermodynamic parameters necessary for fitting compound binding for each proMMP were estimated by differential scanning calorimetry (DSC) and from ThermoFluor® data. The heat capacity of unfolding for each protein was estimated from the molecular weight and from ThermoFluor® dosing data.
ThermoFluor® with proMMP9(67-444;ΔFnII) (SEQ ID NO:5)
The protein sample preparations had to include a desalting buffer exchange step via a PD-10 gravity column (GE Healthcare). The desalting buffer exchange was performed prior to diluting the protein to the final assay concentration of 3.5 μM proMMP9(67-444;ΔFnII) (SEQ ID NO:5). The concentration of proMMP9(67-444;ΔFnII) (SEQ ID NO:5) was determined spectrophotometrically based on a calculated extinction coefficient of ε280=33900 M^−1cm^−1, a calculated molecular weight of 22.6 kDa, and calculated pI of 5.20. ThermoFluor® reference conditions were defined as follows: 80 μg/mL (3.5 μM) proMMP9(67-444;ΔFnII) (SEQ ID NO:5), 50 μM 1,8-ANS, pH 7.0 Buffer (50 mM HEPES pH 7.0, 100 mM NaCl, 0.001% Tween-20, 2.5 mM MgCl2, 300 μM CaCl2). The thermodynamic parameters for proMMP9(67-444;ΔFnII) (SEQ ID NO:5) are as follows: Tm (° C.)=63 (+/−0.1), ΔUH(Tm) (cal mol^−1)=105000(+/−5000), ΔUS(Tm) (cal mol^−1 K^−1)=450, […].
In general terms: In DSF a fluorescence change marks the thermal transition of the protein.

The target of test [2] is T2, proMMP9(20-445;ΔFnII) (SEQ ID NO:6) (Homo sapiens, UniProt P14780, DEL216-390).
T2 construct: start methionine (N); made in house; host or cells: E. coli BL21(DE3) RIL
T2 sequence (P14780 with tags, fused parts or gaps DEL216-390): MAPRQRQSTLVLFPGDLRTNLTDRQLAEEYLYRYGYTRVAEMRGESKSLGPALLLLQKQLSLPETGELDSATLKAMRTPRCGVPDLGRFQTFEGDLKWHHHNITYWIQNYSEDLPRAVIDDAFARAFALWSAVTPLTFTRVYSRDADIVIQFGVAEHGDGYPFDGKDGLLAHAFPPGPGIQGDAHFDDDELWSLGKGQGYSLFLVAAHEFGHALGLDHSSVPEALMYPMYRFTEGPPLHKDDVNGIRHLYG
As to the kind of experiment: ThermoFluor with proMMP9(20-445;ΔFnII). The conditions noted are these: read-out: proMMP9(20-445; ΔFnII) (SEQ ID NO: 6) binding. The protocol: as §1, §2, §3, §4
ThermoFluor® with proMMP9(20-445;ΔFnII) (SEQ ID NO:6)
The protein sample preparations included a desalting buffer exchange step via a PD-10 gravity column (GE Healthcare). The desalting buffer exchange was performed prior to diluting the protein to the final assay concentration of 2.8 μM proMMP9(20-445;ΔFnII) (SEQ ID NO:6). The concentration of proMMP9(20-445;ΔFnII) (SEQ ID NO:6) was determined spectrophotometrically based on a calculated extinction coefficient of ε280=39880 M^−1cm^−1, a calculated molecular weight of 28.2 kDa, and calculated pI of 5.5. ThermoFluor® reference conditions were define as follows: 80 μg/mL (2.8 μM) proMMP9(20-445;ΔFnII) (SEQ ID NO:6), 50 μM 1,8-ANS, pH 7.0 Buffer (50 mM HEPES pH 7.0, 100 mM NaCl, 0.001% Tween-20, 2.5 mM MgCl2, 300 μM CaCl2). The thermodynamic parameters for proMMP9(20-445;ΔFnII) (SEQ ID NO:6) are as follows: Tm (° C.)=72 (+/−0.1), ΔUH(Tm) (cal mol^−1)=160000(+/−5000), ΔUS(Tm) (cal mol^−1 K^−1)=434, ΔUCp (cal mol^−1 K^−1)=2400.

The target of test [3] is T3, full-length proMMP9(1-707) (SEQ ID NO:1) (Homo sapiens, UniProt P14780, R574P).
T3 construct: made in house; host or cells: HEK293 (proMMP9, secreted); E. coli (MMP3)
The experiment in a line: proMMP9/MMP3 P126 Activation Assay. In kind it is biochemical. The conditions noted are these: proMMP9(1-707) from HEK293 cells activated by catalytic MMP3. The protocol:
proMMP9/MMP3 P126 Activation Assay
The reaction volume was 50 μL. […] Reactivity of residual MMP3 towards P-126 substrate was minimal under these conditions.

Where a name gives a salt, the structure may show the parent alone.

T3 sequence (P14780 20-707 R574P): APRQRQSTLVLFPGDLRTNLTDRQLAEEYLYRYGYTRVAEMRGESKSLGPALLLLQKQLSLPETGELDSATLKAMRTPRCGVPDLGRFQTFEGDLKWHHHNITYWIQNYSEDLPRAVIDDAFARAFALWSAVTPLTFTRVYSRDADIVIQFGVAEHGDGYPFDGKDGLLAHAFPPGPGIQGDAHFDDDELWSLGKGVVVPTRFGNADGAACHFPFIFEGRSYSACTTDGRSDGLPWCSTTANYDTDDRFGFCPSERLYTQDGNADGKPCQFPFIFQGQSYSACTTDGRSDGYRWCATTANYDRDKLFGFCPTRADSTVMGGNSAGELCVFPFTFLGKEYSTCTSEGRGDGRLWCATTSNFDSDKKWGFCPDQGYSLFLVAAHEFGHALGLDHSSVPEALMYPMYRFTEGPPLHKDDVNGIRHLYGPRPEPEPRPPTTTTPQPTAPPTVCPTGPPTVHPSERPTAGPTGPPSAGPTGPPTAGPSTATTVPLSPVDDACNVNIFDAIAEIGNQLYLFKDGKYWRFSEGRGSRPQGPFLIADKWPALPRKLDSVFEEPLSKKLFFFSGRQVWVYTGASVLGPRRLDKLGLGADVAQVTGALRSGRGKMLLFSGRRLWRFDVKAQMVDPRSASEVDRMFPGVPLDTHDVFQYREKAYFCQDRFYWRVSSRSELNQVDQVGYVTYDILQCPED

Take `CC(C)Oc1ccc(S(N)(=O)=O)cc1Nc1nc(-c2ccc(OCCN3CCOCC3)cc2)cs1` [Example 28, 4-Isopropoxy-3-((4-(4-(2-morpholinoethoxy)phenyl)thiazol-2-yl)amino)benzenesulfonamide.TFA]: the values for the Kd in test [1] and in test [2] were 110 nM and 75 nM, respectively. Also, it took 100 nM to reach half-maximal inhibition in test [3] (IC50).
On to `CC(C)Cc1ccc(C(N)=O)cc1Nc1nc(-c2ccc(OCCN3CCC(F)CC3)cc2)cs1` [Example 40, 3-((4-(4-(2-(4-fluoropiperidin-1-yl)ethoxy)phenyl)thiazol-2-yl)amino)-4-isobutylbenzamide.TFA], for which the Kd in test [1] was determined as 660 nM; in test [2], 190 nM. Besides, the IC50 in test [3] was determined as 1300 nM.
Turning to `COc1ccc(F)cc1Nc1nc(-c2ccc(OCCN3CCOCC3)cc2)cs1` [Example 66, N-(5-fluoro-2-methoxyphenyl)-4-(4-(2-morpholinoethoxy)phenyl)thiazol-2-amine.TFA], the values for the Kd in test [1] and in test [2] were 2900 nM and greater than 19000 nM, respectively. Half-maximal inhibition in test [3] (IC50) was put at 1800 nM.
For `CC(C)Oc1ccc(S(N)(=O)=O)cc1Nc1nc(-c2ccc(CN3CCN(C4CC4)CC3)cc2)cs1` [Example 51, 3-((4-(4-((4-cyclopropylpiperazin-1-yl)methyl)phenyl)thiazol-2-yl)amino)-4-isopropoxybenzenesulfonamide.TFA] the same measures were 79 nM, 36 nM and 110 nM.
For `CC(C)Oc1ccc(S(N)(=O)=O)cc1Nc1nc(-c2ccc(C3=CCN(C(C)C)CC3)cc2)cs1` [Example 15, 4-Isopropoxy-3-((4-(4-(1-isopropyl-1,2,3,6-tetrahydropyridin-4-yl)phenyl)thiazol-2-yl)amino)benzenesulfonamide.TFA] the same measures were 18 nM, 17 nM and 28 nM.
Take `NC(=O)c1ccc(OC(F)(F)F)c(Nc2nc(-c3ccc(OCCN4CCC(F)CC4)cc3)cs2)c1` [Example 37, 3-((4-(4-(2-(4-fluoropiperidin-1-yl)ethoxy)phenyl)thiazol-2-yl)amino)-4-(trifluoromethoxy)benzamide.TFA]: the Kd in test [1] turned out to be 270 nM; in test [2], 74 nM. Moreover, the IC50 in test [3] is 360 nM.
Turning to `CC(C)Oc1ccc(F)cc1Nc1nc(-c2ccc(OCCN3CCOCC3)cc2)cs1` [Example 65, N-(5-fluoro-2-isopropoxyphenyl)-4-(4-(2-morpholinoethoxy)phenyl)thiazol-2-amine.TFA], the Kd was 4900 nM in test [1] and greater than 19000 nM in test [2]. Moreover, the half-maximal inhibitory concentration (IC50) in test [3] was no less than 20000 nM.
For `NS(=O)(=O)c1cc2c(c(Nc3nc(-c4ccc(OCCN5CCC(F)CC5)cc4)cs3)c1)OCC2` [Example 38, 7-((4-(4-(2-(4-fluoropiperidin-1-yl)ethoxy)phenyl)thiazol-2-yl)amino)-2,3-dihydrobenzofuran-5-sulfonamide.TFA], the Kd in test [1] is 3000 nM; in test [2], 2600 nM. This molecule also yielded an IC50 in test [3] greater than 20000 nM.
For `CCOc1ccncc1Nc1nc(-c2ccc(C3=CCNCC3)cc2)cs1` [Example 20, N-(4-Ethoxypyridin-3-yl)-4-(4-(1,2,3,6-tetrahydropyridin-4-yl)phenyl)thiazol-2-amine.TFA], the Kd was determined as 69 nM in test [1] and 380 nM in test [2]. In test [3], this molecule showed an IC50 of 92 nM.
As to `CC(C)Oc1ccc(S(N)(=O)=O)cc1Nc1nc(-c2ccc(OCCN3CCC(F)CC3)cc2)cs1` [Example 34, 3-((4-(4-(2-(4-fluoropiperidin-1-yl)ethoxy)phenyl)thiazol-2-yl)amino)-4-isopropoxybenzenesulfonamide.TFA], the Kd in test [1] turned out to be 28 nM; in test [2] it was 21 nM. In test [3], this molecule had an IC50 of 120 nM.
The like results for `COc1ccc(F)cc1Nc1nc(-c2ccc(OCCN3CCC(F)(F)CC3)cc2)cs1` [Example 67, 4-(4-(2-(4,4-difluoropiperidin-1-yl)ethoxy)phenyl)-N-(5-fluoro-2-methoxyphenyl)thiazol-2-amine.TFA] were, in that order, 7700 nM, greater than 9000 nM and no less than 20000 nM.
Consider `CCN1CCN(c2ccc(-c3csc(Nc4cc(S(N)(=O)=O)ccc4OC(C)C)n3)cc2)CC1` [Example 4, 3-((4-(4-(4-Ethylpiperazin-1-yl)phenyl)thiazol-2-yl)amino)-4-isopropoxybenzenesulfonamide.TFA], for which the values for the Kd in test [1] and in test [2] were 100 nM and 110 nM, respectively. Further, half-maximal inhibition in test [3] (IC50) required 85 nM.
The like results for `COc1ccc(F)cc1Nc1nc(-c2ccc(CN3CCOCC3)cc2)cs1` [Example 64, N-(5-fluoro-2-methoxyphenyl)-4-(4-(morpholinomethyl)phenyl)thiazol-2-amine.TFA] were, in that order, 6200 nM, 48000 nM and 2000 nM.
For `COc1ccc(F)cc1Nc1nc(-c2ccc(CN3CCC(F)CC3)cc2)cs1` [Example 62, N-(5-fluoro-2-methoxyphenyl)-4-(4-((4-fluoropiperidin-1-yl)methyl)phenyl)thiazol-2-amine.TFA], the results for the Kd in test [1] and in test [2] were 5700 nM and 45000 nM, respectively. Also, the IC50 in test [3] is 1600 nM.
The like results for `CC(C)Oc1ccc(S(N)(=O)=O)cc1Nc1nc(-c2ccc(CN3CCOCC3)cc2)cs1` [Example 59, 4-isopropoxy-3-((4-(4-(morpholinomethyl)phenyl)thiazol-2-yl)amino)benzenesulfonamide.TFA] were, in that order, 180 nM, 98 nM and 300 nM.

A word on the IC50: it is the concentration at which inhibition is half-maximal.
